Results: PubChem BioAssay AID2060355 (Molecular Pharmacology Branch, DTP, NCI, 2025)
Values joined by “and” are separate entries in the source; they are usually repeats but may differ in a detail not shown here. Equal entries are not always repeated.

Test system: 485368-065-R4-J2-PDC spheroids with HUVEC/MSC, viability
Assay: Anticancer human tumor 485368-065-R4-J2-PDC patient-derived pancreatic carcinoma cell line growth inhibition [TAK]
Details: for viability, T/C: stronger effect = lower value
From the text: Combinatorial screen of targeted agents with TAK-243 and ipatasertib in multi-cell type tumor spheroids
A high-throughput screen of multi-cell type tumor spheroids was designed to identify active combinations of targeted small molecules and TAK-243 or ipatasertib. Complex spheroids include a stromal component modeled by human endothelial cells (HUVEC) and fibroblasts modeled by human mesenchymal stem cells (MSCs). The concentration ranges selected for each drug and investigational agent were based upon clinically achievable concentrations if the clinical Cmax of the agent was known.
Compounds. The drugs and investigational agents: TAK-243 (785004), ipatasertib (767898), everolimus (733504), selumetinib (741078), bortezomib (756655), trametinib (758246), ixazomib (758254), vemurafenib (761431), dabrafenib (764134), sapanisertib (764658), alpelisib (765974), and copanlisib (816437), were obtained from the National Cancer Institute (NCI) Developmental Therapeutics Program Chemical Repository. The FDA-approved anticancer drug set is available from the NCI Developmental Therapeutics Program. […] The stock solutions were prepared in dimethyl sulfoxide (DMSO, Sigma-Aldrich, St. Louis, MO, cat. D2650) at 800-fold the tested concentration and stored at -70 degrees C prior to their use. All drugs and investigational agents were tested over a range starting from a high concentration at or near the clinical Cmax and decreasing in half-log increments. If the clinical Cmax for an agent had not been determined, the highest concentration tested was 10 microM.
NCI60 Cell Culture. NCI60 cell lines were obtained from the NCI Developmental Therapeutics Program Tumor Repository. For each lot of cells, the Repository performed Applied Biosystems AmpFLSTR Identifiler testing with PCR amplification to confirm consistency with the published Identifier STR profile for each cell line. Cells were kept in continuous culture for no more than 20 passages. The optimal seeding densities for each of the cell lines at each time point assessed were determined prior to performing the concentration response studies. Briefly, the NCI60 human tumor lines were grown as monolayers in RPMI 1640 medium supplemented with 10% FBS and 2 mmol/L L-glutamine.
An additional 2 lines were from the NCI60 cell line panel including melanomas, MALME-3M and SK-MEL-2. Pooled donor human umbilical vein endothelial cells (HUVEC, Lonza, cat. CC-2519) and human mesenchymal stem cells (hMSC, Lonza, cat. PT-2501) were purchased from Lonza (Walkersville, MD).
PDMR cell lines were grown in complete medium (DC medium): Dulbecco's modified Eagle's medium (DMEM)/F12 supplemented with 5% fetal bovine serum (FBS), 2 mM L-glutamine, 100 U/mL penicillin and 100 µg/ml streptomycin, 0.4 µg/ml hydrocortisone, 10 ng/ml epidermal growth factor (EGF) recombinant human protein, 24 µg/mL adenine, and 0.1 mg/mL primocin. During culture from frozen stock vials, PDMR cells were cultured in the same medium containing 10 µM Y-27632 (see Table 3). The PDCs were cultured in complete DMEM/F12 media without 10 microM Y-27632 dihydrochloride for at least two passages prior to the screen. The pooled donor HUVEC and hMSC were cultured in endothelial cell growth medium 2 (PromoCell, Heidelberg, Germany, cat. C-22011) and mesenchymal stem cell growth medium 2 (PromoCell, cat. C-28009), respectively. For all experiments, HUVEC and hMSC were used at passages </=5.
For the pre-screen, cell seeding densities were determined from a titration spanning the range from 5,000 to 313 cells per well. The mct-spheroids including 60% malignant cells, 25% HUVEC and 15% MSC dispensed as a mixture into U-bottom Ultra-Low Attachment 384-well plates (Corning, NY)
High-throughput Drug Combination Screening.
Prior to their inoculation into 384-well plates, malignant cells, HUVEC, and hMSC were removed from T flasks using TrypLE express (Thermo Fisher Scientific, cat. 12605036) and harvested by centrifugation for 5 min at 233 x g. […]

[1] = curve of first compound, second compound 0.3 µM
[2] = curve of first compound, second compound 0.949 µM
[3] = curve of first compound, second compound 3 µM
[4] = curve of first compound, second compound 9.49 µM
[5] = curve of first compound, second compound 30 µM
[6] = second compound 0.3 µM, first compound 0.00316 µM
[7] = second compound 0.3 µM, first compound 0.01 µM
[8] = second compound 0.3 µM, first compound 0.0316 µM
[9] = second compound 0.3 µM, first compound 0.1 µM
[10] = second compound 0.3 µM, first compound 0.316 µM
[11] = second compound 0.3 µM, first compound 1 µM
[12] = second compound 0.949 µM, first compound 0.00316 µM
[13] = second compound 0.949 µM, first compound 0.01 µM
[14] = second compound 0.949 µM, first compound 0.0316 µM
[15] = second compound 0.949 µM, first compound 0.1 µM
[16] = second compound 0.949 µM, first compound 0.316 µM
[17] = second compound 0.949 µM, first compound 1 µM
[18] = second compound 3 µM, first compound 0.00316 µM
[19] = second compound 3 µM, first compound 0.01 µM
[20] = second compound 3 µM, first compound 0.0316 µM
[21] = second compound 3 µM, first compound 0.1 µM
[22] = second compound 3 µM, first compound 0.316 µM
[23] = second compound 3 µM, first compound 1 µM
[24] = second compound 9.49 µM, first compound 0.00316 µM
[25] = second compound 9.49 µM, first compound 0.01 µM
[26] = second compound 9.49 µM, first compound 0.0316 µM
[27] = second compound 9.49 µM, first compound 0.1 µM
[28] = second compound 9.49 µM, first compound 0.316 µM
[29] = second compound 9.49 µM, first compound 1 µM
[30] = second compound 30 µM, first compound 0.00316 µM
[31] = second compound 30 µM, first compound 0.01 µM
[32] = second compound 30 µM, first compound 0.0316 µM
[33] = second compound 30 µM, first compound 0.1 µM
[34] = second compound 30 µM, first compound 0.316 µM
[35] = second compound 30 µM, first compound 1 µM
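Further: spheroids exposed to compounds for seven days before readout.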
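Wherever viability, T/C is given: 100% = DMSO vehicle control wells.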

In the case of `CC(C)CC(NC(=O)CNC(=O)c1cc(Cl)ccc1Cl)B1OC(=O)CC(CC(=O)O)(C(=O)O)O1` (stereo unspecified), the viability, T/C (compound 0.000316 µM) is reported as 94.9% and 95.6%, the viability, T/C (compound 0.001 µM) is reported as 102% and 98.5% and the viability, T/C (compound 0.00316 µM) is reported as 94.6% and 94.7%. For the same compound, the viability, T/C (compound 0.01 µM) was 108% and 110%, the viability, T/C (compound 0.0316 µM) was 61.6% and 60.1% and the viability, T/C (compound 0.1 µM) was 9.41% and 9.34%. For the same compound, the IC50 (curve of compound) was 40.8 nM and 39.7 nM.

For `CC(C)n1nc(-c2ccc3oc(N)nc3c2)c2c(N)ncnc21`, the viability, T/C (compound 0.000316 µM) was 102% and 92.5%, the viability, T/C (compound 0.001 µM) was 103% and 94.1% and the viability, T/C (compound 0.00316 µM) was 89.2% and 90.2%. The viability, T/C (compound 0.01 µM) was 87.3% and 94.1%, the viability, T/C (compound 0.0316 µM) was 63.8% and 72.8% and the viability, T/C (compound 0.1 µM) was 44.3% and 46.3%. For the same compound, the IC50 (curve of compound) was 72.5 nM and 85 nM.

`COc1c(OCCCN2CCOCC2)ccc2c3n(c(=NC(=O)c4cnc(N)nc4)nc12)CCN3` was tested, and the viability, T/C (compound 0.00316 µM) was 95.2% and 89.6%, the viability, T/C (compound 0.01 µM) was 74.6% and 75.8% and the viability, T/C (compound 0.0316 µM) was 72.5% and 70.2%. The viability, T/C (compound 0.1 µM) was 56.2% and 51.2%, the viability, T/C (compound 0.316 µM) was 32.7% and 29.9% and the viability, T/C (compound 1 µM) was 29.5% and 26.7%. For the same compound, the IC50 (curve of compound) was 126 nM and 96.9 nM.

`COc1c(OCCCN2CCOCC2)ccc2c3n(c(=NC(=O)c4cnc(N)nc4)nc12)CCN3` + CC(C)NCC(C(=O)N1CCN(c2ncnc3c2C(C)CC3O)CC1)c1ccc(Cl)cc1 was tested, and the IC50 [1] was 133 nM, the IC50 [2] was 161 nM and the IC50 [3] was 75.6 nM. The IC50 [4] was 45.8 nM, the IC50 [5] was 15.1 nM and the viability, T/C [6] was 91.7%. For the same compound, the viability, T/C [7] was 76.2%, the viability, T/C [8] was 94.5% and the viability, T/C [9] was 55.6%. The viability, T/C [10] was 35.1%, the viability, T/C [11] was 31.2% and the viability, T/C [12] was 96.3%. For the same compound, the viability, T/C [13] was 100%, the viability, T/C [14] was 84.6% and the viability, T/C [15] was 61.1%. For the same compound, the viability, T/C [16] was 34.3%, the viability, T/C [17] was 33.2% and the viability, T/C [18] was 95.9%. It also gave a viability, T/C [19] of 86.8%, a viability, T/C [20] of 66.5% and a viability, T/C [21] of 45.6%. It also gave a viability, T/C [22] of 31.5%, a viability, T/C [23] of 31.2% and a viability, T/C [24] of 81%. For the same compound, the viability, T/C [25] was 72.8%, the viability, T/C [26] was 56.6% and the viability, T/C [27] was 37.2%. The viability, T/C [28] was 28.4%, the viability, T/C [29] was 28% and the viability, T/C [30] was 60.4%. It also gave a viability, T/C [31] of 56.5%, a viability, T/C [32] of 38.8% and a viability, T/C [33] of 29.8%. The viability, T/C [34] was 25.3% and the viability, T/C [35] was 26.3%.

Work on `CC(C)n1nc(-c2ccc3oc(N)nc3c2)c2c(N)ncnc21` + CC(C)NCC(C(=O)N1CCN(c2ncnc3c2C(C)CC3O)CC1)c1ccc(Cl)cc1 yielded an IC50 [1] of 58.5 nM, an IC50 [2] of 29.3 nM and an IC50 [3] of 20.8 nM. The IC50 [4] was 10.1 nM, the IC50 [5] was 6.33 nM and the viability, T/C (second compound 0.3 µM, first compound 0.000316 µM) was 95.7%. It also gave a viability, T/C (second compound 0.3 µM, first compound 0.001 µM) of 88%, a viability, T/C [6] of 90.6% and a viability, T/C [7] of 89.7%. For the same compound, the viability, T/C [8] was 56.5%, the viability, T/C [9] was 44.4% and the viability, T/C (second compound 0.949 µM, first compound 0.000316 µM) was 98.6%. The viability, T/C (second compound 0.949 µM, first compound 0.001 µM) was 99.3%, the viability, T/C [12] was 91.4% and the viability, T/C [13] was 66.7%. For the same compound, the viability, T/C [14] was 51.2%, the viability, T/C [15] was 40.3% and the viability, T/C (second compound 3 µM, first compound 0.000316 µM) was 97.8%. It also gave a viability, T/C (second compound 3 µM, first compound 0.001 µM) of 94.4%, a viability, T/C [18] of 81.4% and a viability, T/C [19] of 62.5%. The viability, T/C [20] was 42.7%, the viability, T/C [21] was 34.5% and the viability, T/C (second compound 9.49 µM, first compound 0.000316 µM) was 91.9%. The viability, T/C (second compound 9.49 µM, first compound 0.001 µM) was 86.1%, the viability, T/C [24] was 75.2% and the viability, T/C [25] was 49.4%. It also gave a viability, T/C [26] of 36.8%, a viability, T/C [27] of 32.5% and a viability, T/C (second compound 30 µM, first compound 0.000316 µM) of 73.1%. It also gave a viability, T/C (second compound 30 µM, first compound 0.001 µM) of 69.3%, a viability, T/C [30] of 57.6% and a viability, T/C [31] of 45.3%. For the same compound, the viability, T/C [32] was 31.4% and the viability, T/C [33] was 25.7%.

Work on `CC(C)(C)c1nc(-c2cccc(NS(=O)(=O)c3c(F)cccc3F)c2F)c(-c2ccnc(N)n2)s1` + CC(C)NCC(C(=O)N1CCN(c2ncnc3c2C(C)CC3O)CC1)c1ccc(Cl)cc1 yielded an IC50 [1] of 2660 nM, an IC50 [2] of 589 nM and an IC50 [3] of 432 nM. For the same compound, the IC50 [4] was 353 nM, the IC50 [5] was 305 nM and the viability, T/C [8] was 104%. It also gave a viability, T/C [9] of 92.8%, a viability, T/C [10] of 71.8% and a viability, T/C [11] of 52.9%. The viability, T/C (second compound 0.3 µM, first compound 3.16 µM) was 50.4%, the viability, T/C (second compound 0.3 µM, first compound 10 µM) was 47.8% and the viability, T/C [14] was 101%. The viability, T/C [15] was 91.3%, the viability, T/C [16] was 63.4% and the viability, T/C [17] was 38.5%. It also gave a viability, T/C (second compound 0.949 µM, first compound 3.16 µM) of 30.9%, a viability, T/C (second compound 0.949 µM, first compound 10 µM) of 28.1% and a viability, T/C [20] of 98.2%. It also gave a viability, T/C [21] of 83%, a viability, T/C [22] of 57.2% and a viability, T/C [23] of 31.9%. It also gave a viability, T/C (second compound 3 µM, first compound 3.16 µM) of 21.2%, a viability, T/C (second compound 3 µM, first compound 10 µM) of 18% and a viability, T/C [26] of 93.4%. It also gave a viability, T/C [27] of 80.2%, a viability, T/C [28] of 52.5% and a viability, T/C [29] of 28.3%. For the same compound, the viability, T/C (second compound 9.49 µM, first compound 3.16 µM) was 18.5%, the viability, T/C (second compound 9.49 µM, first compound 10 µM) was 17.5% and the viability, T/C [32] was 77.2%. For the same compound, the viability, T/C [33] was 69.9%, the viability, T/C [34] was 49.8% and the viability, T/C [35] was 24.8%. The viability, T/C (second compound 30 µM, first compound 3.16 µM) was 16.4% and the viability, T/C (second compound 30 µM, first compound 10 µM) was 15.3%.
